# Data: patent US20110224204A1, “DI-SUBSTITUTED PHENYL COMPOUNDS” (priority 2008, published 2011)
# Experiments:
# [1] = rats; cited from earlier work
# Human PDE10A1 = Human PDE10A1 (Homo sapiens, UniProt Q9Y233); experiment: hPDE10A1 Enzyme Inhibition; format: biochemical; conditions: [3H]-cAMP substrate; read-out: hPDE10A1 IC50 Band
# Method: hPDE10A1 Enzyme Activity: 50 μl samples of serially diluted Human PDE10A1 enzyme were incubated with 50 μl of [^3H]-cAMP for 20 minutes (at 37° C.). Reactions were carried out in Greiner 96 deep well 1 ml master-block. The enzyme was diluted in 20 mM Tris HCl pH7.4 and [^3H]-cAMP was diluted in 10 mM MgCl2, 40 mM Tris.HCl pH 7.4. The reaction was terminated by denaturing the PDE enzyme (at 70° C.) after which [^3H]-5′-AMP was converted to [^3H]-adenosine by adding 25 μl snake venom nucleotidase and incubating for 10 minutes (at 37° C.). Adenosine, being neutral, was separated from charged cAMP or AMP by the addition of 200 μl Dowex resin. Samples were shaken for 20 minutes then centrifuged for 3 minutes at 2,500 r.p.m. 50 μl of supernatant was removed and added to 200 μl of MicroScint-20 in white plates (Greiner 96-well Optiplate) and shaken for 30 minutes before reading on Perkin Elmer TopCount Scintillation Counter.
# hPDE10A1 Enzyme Inhibition: To check inhibition profile 11 μl of serially diluted inhibitor was added to 50 μl of [^3H]-cAMP and 50 ul of diluted Human PDE10A1 and assay was carried out as in the enzyme activity assay. Data was analysed using Prism software (GraphPad Inc).
# Sequence of Human PDE10A1 (Q9Y233 1-779 isoform Q9Y233-1): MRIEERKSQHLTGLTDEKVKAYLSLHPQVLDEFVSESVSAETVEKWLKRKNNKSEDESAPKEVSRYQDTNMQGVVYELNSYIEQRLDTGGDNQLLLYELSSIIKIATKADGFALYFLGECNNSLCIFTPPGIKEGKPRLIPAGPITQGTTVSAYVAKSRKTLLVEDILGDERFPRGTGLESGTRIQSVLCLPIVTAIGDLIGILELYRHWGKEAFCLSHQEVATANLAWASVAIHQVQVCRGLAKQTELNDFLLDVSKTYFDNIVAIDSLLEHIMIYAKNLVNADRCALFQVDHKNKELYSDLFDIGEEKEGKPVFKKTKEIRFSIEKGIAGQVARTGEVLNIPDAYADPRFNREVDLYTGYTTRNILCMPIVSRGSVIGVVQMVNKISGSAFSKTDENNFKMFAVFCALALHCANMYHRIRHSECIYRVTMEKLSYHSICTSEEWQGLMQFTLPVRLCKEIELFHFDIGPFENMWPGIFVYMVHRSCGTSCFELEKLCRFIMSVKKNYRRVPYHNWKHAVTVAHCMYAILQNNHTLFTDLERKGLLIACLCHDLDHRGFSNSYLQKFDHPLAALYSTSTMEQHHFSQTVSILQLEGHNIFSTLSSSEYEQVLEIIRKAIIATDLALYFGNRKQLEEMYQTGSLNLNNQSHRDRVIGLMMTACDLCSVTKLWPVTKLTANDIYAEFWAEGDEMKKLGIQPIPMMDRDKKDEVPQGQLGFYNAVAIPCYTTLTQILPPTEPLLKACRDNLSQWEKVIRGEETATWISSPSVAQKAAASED
Structure (SMILES),IC50 (Human PDE10A1) [nM],further results
COc1ccc(Cc2nccc3cc(OC)c(OC)cc23)cc1OC [papaverine],,apomorphine induced stereotypies [1]: reduces; haloperidol induced catalepsy [1]: increases; rat brain dopamine levels [1]: reduces
"N#Cc1ccc(-c2ccc(OCc3ccc4ccccc4n3)cc2)c(-c2ccncc2)c1 [Example 1885, 2-(Pyridin-4-yl)-4′-(quinolin-2-ylmethoxy)biphenyl-4-carbonitrile]",> 50,melting point: 190 to 193 °C
"Cc1ccnc(COc2ccc(-c3ccccc3-c3ccncc3)cc2)c1 [Example 1947, 4-methyl-2-((2′-(pyridin-4-yl)biphenyl-4-yloxy)methyl)pyridine]",> 50,
COc1ccc(-c2ccccc2-c2ccc(OCc3ccc4ccccc4n3)cc2)cc1F [Example 1858],≤ 50,
"Fc1ccc2nc(COc3ccc(-c4ccccc4-c4ccncc4)cc3)ccc2c1 [Example 560, 6-fluoro-2-((2′-(pyridin-4-yl)biphenyl-4-yloxy)methyl)quinoline]",≤ 50,
"Fc1ccc(-c2ccncc2)c(N2CCC(OCc3ccc4ccccc4n3)CC2)c1 [Example 1706, 2-((1-(5-fluoro-2-(pyridin-4-yl)phenyl)piperidin-4-yloxy)methyl)quinoline]",> 50,
COc1ccc(-c2ccccc2-c2ccc(OCc3ccc4ccccc4n3)cc2)cc1C#N [Example 281],≤ 50,
"c1ccc(N2CCCC2)c(-c2ccc(OCc3ccc4ccccc4n3)cc2)c1 [Example 1868, 2-((2′-(pyrrolidin-1-yl)biphenyl-4-yloxy)methyl)quinoline]",> 50,
"COc1cc(-c2ccncc2)c(-c2ccc(OCc3ccc4ccccc4n3)cc2)cc1OC [Example 1862, 2-((4′,5′-dimethoxy-2′-(pyridin-4-yl)biphenyl-4-yloxy)methyl)quinoline]",> 50,
"Nc1cccc(-c2ccncc2)c1-c1ccc(OCc2ccc3ccccc3n2)cc1 [Example 1881, 6-Pyridin-4-yl-4′-(quinolin-2-ylmethoxy)-biphenyl-2-ylamine]",> 50,
"CC(C)Oc1ccccc1-c1ccc(OCc2ccc3ccccc3n2)cc1 [Example 1879, 2-((2′-isopropoxybiphenyl-4-yloxy)methyl)quinoline]",> 50,
N#Cc1ccc(-c2ccccc2-c2ccc(OCc3ccc4ccccc4n3)cc2)cc1Cl [Example 1865],> 50,
"Cc1cccnc1COc1ccc(-c2ccccc2-c2ccncc2)cc1 [Example 1882, 3-methyl-2-((2′-(pyridin-4-yl)biphenyl-4-yloxy)methyl)pyridine]",> 50,
"CC(C)c1ccccc1-c1ccc(OCc2ccc3ccccc3n2)cc1 [Example 443, 2-((2′-isopropylbiphenyl-4-yloxy)methyl)quinoline]",> 50,
"c1ccc(-c2ccc(OCc3cn4ccccc4n3)cc2)c(-c2ccncc2)c1 [Example 619, 2-((2′-(pyridin-4-yl)biphenyl-4-yloxy)methyl)imidazo[1,2-a]pyridine]",≤ 50,
"Cc1ccc(COc2ccc(-c3ccccc3-c3ccncc3)cc2)nc1 [Example 501, 5-methyl-2-((2′-(pyridin-4-yl)biphenyl-4-yloxy)methyl)pyridine]",≤ 50,
